Results reported in the supplement of paper PMC10307832.

Tests used:
Test in all cases: relative viability (nuclei count vs DMSO), 5 days (fraction); higher = more cells survive
RU-SKI 43 + Olaparib = compound: CC[C@@H](C)CNCC(=O)N1CCC2=C([C@@H]1COC3=CC=CC(=C3)C)C=CS2 [RU-SKI 43] + O=C(c1cc(Cc2n[nH]c(=O)c3ccccc23)ccc1F)N1CCN(C(=O)C2CC2)CC1 [Olaparib] (partner 8 µM)
Summary of the method: (§1)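 Lung cancer cell lines were seeded in 1536-well plates and dosed by pin tool the next day, with either a single drug or a fixed anchor-drug dose combined with five library-drug doses (not always all listed) spaced in √10 steps. Five days later, one step fixed the cells and stained their nuclei (final 0.05% Triton X-100, 1% formaldehyde, 1 ug/ml Hoechst), and nuclei were counted on 4× images. Relative viability is the nuclei count in treated wells divided by the count in vehicle wells, and each value is the median of duplicate plates.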

Irinotecan + Lapatinib = compound: CCc1c2c(nc3ccc(OC(=O)N4CCC(N5CCCCC5)CC4)cc13)-c1cc3c(c(=O)n1C2)COC(=O)[C@]3(O)CC [Irinotecan] + CS(=O)(=O)CCNCc1ccc(-c2ccc3ncnc(Nc4ccc(OCc5cccc(F)c5)c(Cl)c4)c3c2)o1 [Lapatinib] (partner 2 µM)
Summary of the method: as §1

RU-SKI 43 + Alpelisib = compound: CC[C@@H](C)CNCC(=O)N1CCC2=C([C@@H]1COC3=CC=CC(=C3)C)C=CS2 [RU-SKI 43] + Cc1nc(NC(=O)N2CCC[C@H]2C(N)=O)sc1-c1ccnc(C(C)(C)C(F)(F)F)c1 [Alpelisib] (partner 2 µM)
Summary of the method: as §1

Irinotecan + Trametinib = compound: CCc1c2c(nc3ccc(OC(=O)N4CCC(N5CCCCC5)CC4)cc13)-c1cc3c(c(=O)n1C2)COC(=O)[C@]3(O)CC [Irinotecan] + CC(=O)Nc1cccc(-n2c(=O)n(C3CC3)c(=O)c3c(Nc4ccc(I)cc4F)n(C)c(=O)c(C)c32)c1 [Trametinib] (partner 0.02 µM)
Summary of the method: as §1

Cell Line	relative viability (RU-SKI 43 + Olaparib; first compound 0.1 µM)	relative viability (RU-SKI 43 + Olaparib; first compound 0.3162 µM)	relative viability (RU-SKI 43 + Olaparib; first compound 1 µM)	relative viability (RU-SKI 43 + Olaparib; first compound 3.162 µM)	relative viability (RU-SKI 43 + Olaparib; first compound 10 µM)	relative viability (Irinotecan + Lapatinib; first compound 0.6325 µM)	relative viability (Irinotecan + Lapatinib; first compound 2 µM)	relative viability (Irinotecan + Lapatinib; first compound 6.325 µM)	relative viability (Irinotecan + Lapatinib; first compound 20 µM)	relative viability (RU-SKI 43 + Alpelisib; first compound 0.1 µM)	relative viability (RU-SKI 43 + Alpelisib; first compound 0.3162 µM)	relative viability (RU-SKI 43 + Alpelisib; first compound 1 µM)	relative viability (RU-SKI 43 + Alpelisib; first compound 3.162 µM)	relative viability (RU-SKI 43 + Alpelisib; first compound 10 µM)	relative viability (Irinotecan + Trametinib; first compound 2 µM)	relative viability (Irinotecan + Trametinib; first compound 6.325 µM)	relative viability (Irinotecan + Trametinib; first compound 20 µM)	relative viability (Irinotecan + Trametinib; first compound 0.6325 µM)
EBC-1	0.817	0.883	0.759	0.729	0.642	0.219	0.172	0.21	0.15	0.784	0.92	0.925	0.799	0.68				
EKVX	0.716	0.971	0.866	1.04	0.849	0.222	0.256	0.16	0.17	0.79	0.949	0.828	0.946	0.839	0.35	0.279	0.15	
EMC-BAC-2	0.476	0.495	0.54	0.487	0.486	0.774	0.578	0.27	0.246	0.769	0.752	0.762	0.733	0.893	0.766	0.474	0.201	0.867
EPLC-272H	0.597	0.648	0.813	0.697	0.64	0.509	0.758	0.211	0.267	1.12	0.968	0.987		0.948	0.323	0.224	0.203	
H3255	0.579	0.594	0.572	0.574	0.529	0.206	0.214	0.224	0.23	0.719	0.834	0.773	0.725	0.686	0.506	0.346	0.37	
HARA	0.822	0.735	0.754	0.894	0.923	0.749	0.339	0.17	0.118	0.762	0.729	0.843	0.69	0.733	0.373	0.245	0.145	0.643
HCC-15	0.71	0.874	0.755	0.772	0.627	0.463	0.336	0.17	0.155	0.96	1.02	0.963	0.931	0.844	0.233	0.179	0.174	0.325
HCC-44	0.984	0.981	1.06	1.06	0.954	0.96	0.73	0.273	0.382	0.73	0.72	0.901	0.875	0.802	0.868	0.561	0.421	1.01
HCC-78	0.849	1.02	0.767	0.868	0.856	0.551	0.543	0.206	0.218	0.349	0.325	0.378	0.436	0.29	0.716	0.31	0.262	0.882
